Reference: patent publication US9580390B2, “Indazole compounds as kinase inhibitors and method of treating cancer with same” (University Health Network, priority 2011, dated 2017)
Where two headings read alike, the source gives them in different places.

Legend:
[1] = test system: colon cancer cells (HCT116); experiment: Cancer cell line growth inhibition (SRB assay); format: cell-based; details: read-out: Cancer Cell Line GI50 Range HCT116
Procedure: Breast cancer cells (MDA-MB-231), colon cancer cells (HCT116) and ovarian cancer cells (PA-1) were seeded (1000 to 4000 in 80 μl per well depending on the cell growth rate) into 96 well plates 24 hours before compound overlay. Compounds were prepared as 10 mM stock solutions in 100% DMSO which were diluted with DMEM (Dulbecco's Modified Eagle's Medium) cell growth Medium (Invitrogen, Burlington, ON, Canada) containing 10% FBS (Fetal Bovine Serum) to concentrations ranging from 50 nM to 250 μM. Aliquots (20 μl) from each concentration were overlaid to 80 μl of the pre-seeded cells in the 96 well plates to make final concentrations of 10 nM to 50 μM. The cells were cultured for 5 days before the Sulforhodamine B assay (SRB) was performed to determine the compound's cell growth inhibition activity.
Sulforhodamine B (purchased from Sigma, Oakville, ON, Canada) is a water-soluble dye that binds to the basic amino acids of the cellular proteins. Thus, colorimetric measurement of the bound dye provides an estimate of the total protein mass that is related to the cell number. the cells are fixed in situ by gently aspirating off the culture media and adding 50 μl ice cold 10% Trichloroacetic Acid (TCA) per well and incubate at 4° C. for 30-60 min. The plates are washed with H2O five times and allowed to air dry for 5 min. Addition of 50 μl 0.4% (w/v) SRB solution in 1% (v/v) acetic acid to each well and incubation for 30 min at RT completes the staining reaction. Following staining, plates are washed four times with 1% acetic acid to remove unbound dye and then allowed to air dry for 5 min. The stain is solubilized with 100 μl of 10 mM Tris pH 10.5 per well. Absorbance is read at 570 nm.
The percentage (%) of relative growth inhibition was calculated by comparing to DMSO treated only cells (100%). GI50's were determined for compounds with cytotoxic activity. The GI50 was calculated using GraphPad PRISM software (GraphPad Software, Inc., San Diego, Calif., USA).

TICs (Colon 12) = experiment: Colon tumor-initiating cell growth inhibition (Alamar Blue); format: cell-based; details: 216 h, 9 days, read-out: Tumor Initiating Cell GI50 Range Colon 12
TICs (Ovarian 2393A) = experiment: Ovarian tumor-initiating cell growth inhibition (Alamar Blue); format: cell-based; details: 144 h; ovarian TICs, 6 days, Alamar Blue; read-out: Tumor Initiating Cell GI50 Range Ovarain 2393A
[2] = test system: ovarian cancer cells (PA-1); experiment: Cancer cell line growth inhibition (SRB assay); format: cell-based; details: read-out: Cancer Cell Line GI50 Range PA-1
human TTK = target: T1, human TTK (Homo sapiens, UniProt P33981); experiment: TTK inhibition assay (indirect ELISA); format: biochemical; details: read-out: TTK IC50 Range
T1 construct: amino terminal GST fusion of full length human TTK; purchased Invitrogen
T1 sequence (P33981 1-857): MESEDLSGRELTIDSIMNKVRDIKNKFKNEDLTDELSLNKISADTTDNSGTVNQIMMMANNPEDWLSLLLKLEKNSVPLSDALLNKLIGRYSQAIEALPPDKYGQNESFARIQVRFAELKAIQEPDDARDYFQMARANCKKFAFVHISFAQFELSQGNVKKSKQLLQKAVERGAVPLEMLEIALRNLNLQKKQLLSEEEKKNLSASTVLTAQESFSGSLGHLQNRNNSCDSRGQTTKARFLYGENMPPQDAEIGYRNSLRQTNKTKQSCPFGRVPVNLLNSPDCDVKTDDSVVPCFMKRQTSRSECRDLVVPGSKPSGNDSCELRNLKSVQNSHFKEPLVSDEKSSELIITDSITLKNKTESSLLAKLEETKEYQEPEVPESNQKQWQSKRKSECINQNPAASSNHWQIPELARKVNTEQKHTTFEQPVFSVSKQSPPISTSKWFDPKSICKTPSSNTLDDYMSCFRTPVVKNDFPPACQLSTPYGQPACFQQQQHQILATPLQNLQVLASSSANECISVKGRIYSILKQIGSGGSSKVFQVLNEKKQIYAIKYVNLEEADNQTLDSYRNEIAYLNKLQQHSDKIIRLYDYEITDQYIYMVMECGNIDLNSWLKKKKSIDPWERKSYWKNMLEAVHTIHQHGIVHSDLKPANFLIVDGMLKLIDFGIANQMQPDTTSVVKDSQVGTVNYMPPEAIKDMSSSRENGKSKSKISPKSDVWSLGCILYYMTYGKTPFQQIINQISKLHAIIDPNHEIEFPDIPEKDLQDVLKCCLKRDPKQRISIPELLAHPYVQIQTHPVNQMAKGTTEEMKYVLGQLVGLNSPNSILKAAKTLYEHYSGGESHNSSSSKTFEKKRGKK
Procedure: Active TTK was purchased from Invitrogen as an amino terminal GST fusion of full length human TTK. Amino terminal 6 histidine, sumo tagged human TTK (residues 1-275) was expressed in E. coli, and purified to >95% homogeneity by Ni^2+ agarose, gel filtration, and ion exchange chromatography.
TTK activity was measured using an indirect ELISA detection system. GST-TTK (0.68 nM) was incubated in the presence of 16 μM ATP (Sigma cat# A7699), 50 mM Hepes pH 7.2, 1 mM EGTA, 10 mM MgCl2, and 0.1% Pluronic in a 96 well microtitre plate pre-coated with amino terminal 6 histidine, sumo tagged TTK (amino acid residues 1-275). The reaction was allowed to proceed for 30 minutes, followed by 5 washes of the plate with Wash Buffer (phosphate buffered saline supplemented with 0.2% Tween 20), and incubation for 30 minutes with a 1:3000 dilution of primary antibody (Cell Signaling cat# 9381). The plate was washed 5 times with Wash Buffer, incubated for 30 minutes in the presence of secondary antibody coupled to horse radish peroxidase (BioRad cat# 1721019, 1:3000 concentration), washed an additional 5 times with Wash Buffer, and incubated in the presence of TMB substrate (Sigma cat# T0440). The colourimetric reaction was allowed to continue for 5 minutes, followed by addition of stop solution (0.5 N sulphuric acid), and quantified by detection at 450 nm with either a monochromatic or filter based plate reader (Molecular Devices M5 or Beckman DTX880, respectively).
Compounds were pre-incubated in the presence of enzyme for 5 minutes prior to addition of ATP and the activity remaining quantified using the above described activity assay. The % Inhibition of a compound was determined using the following formula: % Inhibition=100×(1−(experimental value−background value)/(high activity control−background value)). The IC50 value was determined using a non-linear 4 point logistic curve fit (XLfit4, IDBS) with the formula: (A+(B/(1+((x/C)^D)))), where A=background value, B=range, C=inflection point, D=curve fit parameter.

Breast cancer cells = experiment: Cancer cell line growth inhibition (SRB assay); format: cell-based; details: Homo sapiens; MDA-MB-468; read-out: Cancer Cell Line GI50 Range MDA-MB-468
[3] = Homo sapiens, HCT-116, HCT116 colon cancer cells, SRB assay
[4] = PA-1 ovarian cancer cells, SRB assay

SMILES | GI50 [1, 3] | GI50 (TICs (Colon 12); colon TICs, Alamar Blue) | GI50 (TICs (Ovarian 2393A)) | GI50 [2, 4] | IC50 (human TTK) | GI50 (Breast cancer cells) | GI50 ([1]; Homo sapiens, HCT-116) | GI50 ([2]; Homo sapiens, PA-1) | GI50 (TICs (Colon 12); Colon 12 TICs) | GI50 ([1]; HCT116) | GI50 ([2]; PA-1)
O=C(Nc1ccc2[nH]nc(-c3ccc(N4CCOCC4)cc3)c2c1)C(c1ccsc1)N1CCCC1 (stereo not drawn) [Example A4] | < 100 nM | < 100 nM | 100 to 500 nM | – | – | – | – | – | – | – | –
O=C(NC(c1ccccc1)C1CC1)c1ccc2[nH]nc(-c3ccc(N4CCOCC4)cc3)c2c1 (stereo not drawn) [Example A12, N-(cyclopropyl(phenyl)methyl)-3-(4-morpholinophenyl)-1H-indazole-5-carboxamide] | < 100 nM | > 500 nM | 100 to 500 nM | – | – | – | – | – | – | – | –
CO[C@@H](C(=O)Nc1ccc2[nH]nc(-c3ccc(OC4CCN(C)CC4)cc3)c2c1)c1ccccc1 [Example A27, (R)-2-methoxy-N-(3-(4-((1-methylpiperidin-4-yl)oxy)phenyl)-1H-indazol-5-yl)-2-phenylacetamide] | < 100 nM | 100 to 500 nM | 100 to 500 nM | – | – | – | – | – | – | – | –
CN1CCC(Oc2ccc(-c3n[nH]c4ccc(C(=O)NC(c5ccsc5)C5CC5)cc34)cc2)CC1 (stereo not drawn) [Example A33, N-(cyclopropyl(thiophen-3-yl)methyl)-3-(4-((1-methylpiperidin-4-yl)oxy)phenyl)-1H-indazole-5-carboxamide] | < 100 nM | 100 to 500 nM | 100 to 500 nM | – | – | – | – | – | – | – | –
O=C(NC(c1ccsc1)C1CC1)c1ccc2[nH]nc(-c3ccc(N4CCOCC4)cc3)c2c1 (stereo not drawn) [Example A35, N-(cyclopropyl(thiophen-3-yl)methyl)-3-(4-morpholinophenyl)-1H-indazole-5-carboxamide] | < 100 nM | > 500 nM | 100 to 500 nM | – | – | – | – | – | – | – | –
C[C@H]1CCCN1[C@H](C(=O)Nc1ccc2[nH]nc(-c3ccc(OC4CCN(C)CC4)cc3)c2c1)c1ccsc1 [Example A41, (S)-N-(3-(4-((1-methylpiperidin-4-yl)oxy)phenyl)-1H-indazol-5-yl)-2-((S)-2-methylpyrrolidin-1-yl)-2-(thiophen-3-yl)acetamide] | < 100 nM | 100 to 500 nM | < 100 nM | – | – | – | – | – | – | – | –
CCc1cccc(CC)c1NC(=O)Nc1ccc2[nH]nc(-c3ccc(OC4CCN(C)CC4)cc3)c2c1 [Example A46, 1-(2,6-diethylphenyl)-3-(3-(4-((1-methylpiperidin-4-yl)oxy)phenyl)-1H-indazol-5-yl)urea] | < 100 nM | > 500 nM | 100 to 500 nM | – | – | – | – | – | – | – | –
CC1(O)CCN(c2ccc(-c3n[nH]c4ccc(NC(=O)C(c5ccsc5)N5CCCC5)cc34)cc2)CC1 (stereo not drawn) [Example A89, N-(3-(4-(4-hydroxy-4-methylpiperidin-1-yl)phenyl)-1H-indazol-5-yl)-2-(pyrrolidin-1-yl)-2-(thiophen-3-yl)acetamide] | < 100 nM | 100 to 500 nM | 100 to 500 nM | < 100 nM | – | – | – | – | – | – | –
CN1CCC(Oc2ccc(-c3n[nH]c4ccc(NC(=O)C(c5cccs5)N5CCCC5)cc34)cc2)CC1 (stereo not drawn) [Example A91, N-(3-(4-((1-methylpiperidin-4-yl)oxy)phenyl)-1H-indazol-5-yl)-2-(pyrrolidin-1-yl)-2-(thiophen-2-yl)acetamide] | < 100 nM | 100 to 500 nM | < 100 nM | < 100 nM | – | – | – | – | – | – | –
COCCN1CCC(Oc2ccc(-c3n[nH]c4ccc(C(=O)NC(c5ccccc5)C5CC5)cc34)cc2)CC1 (stereo not drawn) [Example A98, N-(cyclopropyl(phenyl)methyl)-3-(4-((1-(2-methoxyethyl)piperidin-4-yl)oxy)phenyl)-1H-indazole-5-carboxamide] | < 100 nM | 100 to 500 nM | 100 to 500 nM | < 100 nM | – | – | – | – | – | – | –
Cc1ccccc1C(NC(=O)c1ccc2[nH]nc(-c3ccc(OC4CCN(C)CC4)cc3)c2c1)C1CC1 (stereo not drawn) [Example A132, N-(cyclopropyl(o-tolyl)methyl)-3-(4-((1-methylpiperidin-4-yl)oxy)phenyl)-1H-indazole-5-carboxamide] | < 100 nM | < 100 nM | 100 to 500 nM | < 100 nM | – | – | – | – | – | – | –
C[C@@H](NC(=O)c1ccc2[nH]nc(-c3ccc(OC4CCN(C)CC4)cc3)c2c1)c1ccccc1F [Example A134, (R)-N-(1-(2-fluorophenyl)ethyl)-3-(4-((1-methylpiperidin-4-yl)oxy)phenyl)-1H-indazole-5-carboxamide] | < 100 nM | 100 to 500 nM | > 500 nM | 100 to 500 nM | – | – | – | – | – | – | –
CC(C)[C@H](NC(=O)c1ccc2[nH]nc(-c3ccc(N4CC(N5CCOCC5)C4)cc3)c2c1)c1ccccc1Cl [Example A313, (S)-N-(1-(2-chlorophenyl)-2-methylpropyl)-3-(4-(3-morpholinoazetidin-1-yl)phenyl)-1H-indazole-5-carboxamide] | – | – | – | – | < 100 nM | < 100 nM | < 100 nM | < 100 nM | < 100 nM | – | –
O=C(N[C@H](c1ccccn1)C1CCCC1)c1ccc2[nH]nc(-c3ccc(N4CC(N5CCOCC5)C4)cc3)c2c1 [Example A314] | – | – | – | – | < 100 nM | < 100 nM | < 100 nM | < 100 nM | < 100 nM | – | –
O=C(N[C@@H](c1ccccn1)C1CCCC1)c1ccc2[nH]nc(-c3ccc(N4C5CCC4CC(O)C5)cc3)c2c1 (stereo partly drawn) [Example A364, N-((R)-cyclopentyl(pyridin-2-yl)methyl)-3-(4-((1R,3R,5S)-3-hydroxy-8-azabicyclo[3.2.1]octan-8-yl)phenyl)-1H-indazole-5-carboxamide] | – | – | – | – | < 100 nM | < 100 nM | < 100 nM | < 100 nM | < 100 nM | – | –
O=C(N[C@@H](c1ncccn1)C1CCCC1)c1ccc2[nH]nc(-c3ccc(N4C5CCC4CC(O)C5)cc3)c2c1 (stereo partly drawn) [Example A366, N-((R)-cyclopentyl(pyrimidin-2-yl)methyl)-3-(4-((1R,3R,5S)-3-hydroxy-8-azabicyclo[3.2.1]octan-8-yl)phenyl)-1H-indazole-5-carboxamide] | – | – | – | – | < 100 nM | < 100 nM | < 100 nM | < 100 nM | < 100 nM | – | –
O=C(N[C@H](c1ncccn1)C1CCCC1)c1ccc2[nH]nc(-c3ccc(N4C5CCC4CC(O)C5)cc3)c2c1 (stereo partly drawn) [Example A367, N-((S)-cyclopentyl(pyrimidin-2-yl)methyl)-3-(4-((1R,3S,5S)-3-hydroxy-8-azabicyclo[3.2.1]octan-8-yl)phenyl)-1H-indazole-5-carboxamide] | – | – | – | – | < 100 nM | < 100 nM | < 100 nM | < 100 nM | < 100 nM | – | –
O=C(N[C@H](c1ccccn1)C1CC1)c1ccc2[nH]nc(-c3ccc(N4[C@@H]5CC[C@H]4COC5)cc3)c2c1 [Example A414, 3-(4-((1R,5S)-3-oxa-8-azabicyclo[3.2.1]octan-8-yl)phenyl)-N-((S)-cyclopropyl(pyridin-2-yl)methyl)-1H-indazole-5-carboxamide] | – | – | – | – | < 100 nM | < 100 nM | < 100 nM | < 100 nM | < 100 nM | – | –
O=C(NCC1(N2CCOCC2)CCCCC1)c1ccc2[nH]nc(-c3ccc(N4[C@@H]5CC[C@H]4COC5)cc3)c2c1 [Example A501, 3-(4-((1R,5S)-3-oxa-8-azabicyclo[3.2.1]octan-8-yl)phenyl)-N-((1-morpholinocyclohexyl)methyl)-1H-indazole-5-carboxamide] | – | – | – | – | < 100 nM | < 100 nM | < 100 nM | < 100 nM | < 100 nM | – | –
CC(C)C[C@H](NC(=O)c1ccc2[nH]nc(-c3ccc(OC4CCN(C5COC5)CC4)cc3)c2c1)c1ccccc1Cl [Example A511, (S)-N-(1-(2-chlorophenyl)-3-methylbutyl)-3-(4-((1-(oxetan-3-yl)piperidin-4-yl)oxy)phenyl)-1H-indazole-5-carboxamide] | – | – | – | – | < 100 nM | 100 to 500 nM | 100 to 500 nM | < 100 nM | – | – | –
O=C(N[C@@H](c1ccccn1)C1CC1)c1ccc2[nH]nc(-c3ccc(N4C5CCC4CC(O)C5)cc3)c2c1 (stereo partly drawn) [Example A512] | – | – | – | – | < 100 nM | 100 to 500 nM | – | – | – | < 100 nM | < 100 nM
